Experimental data taken from patent US20130055471A1, “Transgenic Ozone-Resistant Plants” (priority 2009, published 2013).
“Also recorded” adds a separate entry of the source.

Columns and labels:
[1] = test system: Corn; experiment: Full leaf Corn Total Dark Respiration (TDR) measurements; format: in vivo, Zea mays L.
Text: (§1) Ozone generators (model OP-35-3P, Grupo Interozone, Brazil) were coupled to ozone monitors (model 202, 2B Technologies, Inc. […] Crops Advance Brazil). […] This was used as the upper limit for phytotron number one. […] Ozone levels of phytotron number two and three were permanently measured at 10 second intervals and averaged per minute. Each ozone monitor fed averaged values over an analog output to an ozone monitor-ozone generator interface. Hysteresis was set at +/-5 ppbv. Ozone levels were monitored close to the inlet of the two internal circulation ventilators. The ozone generators were adapted to accept an external digital signal from the interface. Respiration of plant material was tested as follows: Partial oxygen pressure drops due to oxygen consumption as result of dark respiration were measured using phase shift fluorescence measurement. For this, a NeoFoxTM Phase Measurement System was used (Fluorometer Bench version using a […] laboratory-grade bifurcated optical fiber with FOXY-R-8 cm overcoated fluorescence oxygen needle sensor, Ocean Optics Inc. USA). Fluorescence phase shift was expressed as Tau in microseconds (μs) and has an inverse and linear relation with the partial oxygen pressure. […] In addition, full leaf Total Dark Respiration (TDR) measurements without the use of any pre-treatment solution (no SHAM and pretreatment control) were executed for cotton, corn and rice. Data (tables 2, 3 and 4) show clear positive correlation between a) total respiration per unit of fresh weight and ozone level, and b) total respiration per unit of dry weight and ozone level.

[2] = test system: Sugarcane plants; experiment: AOX and total dark respiration in sugarcane exposed to various levels of ozone; format: in vivo, Saccharum spp.; conditions: for relative AOX, integration of the parabolic function yields / absolute AOX, integration of the parabolic function yields: 60 ppbv
Text: For sugarcane 4 plantlets per pot were provided and these plantlets were transplanted from the agar following washing of their root system with nutrient solution (see below) in order to remove residual agar. Every sugar cane pot was provided with a dome consisting of a 5 litre water flask (PP) of which the bottom was removed creating a 30 cm high dome. Crepe-tape was used to provide an air-tight connection between the bottom rim of the flask and the planting pot. The 40 mm screw cap on top functioned as a ventilation valve, initially maintaining near 100% RV to prevent the plantlets from drying out. Directly after transplanting, the sugar cane plantlets were placed in a phytotron (4 pots per phytotron) more in particular in acrylic cabinets created therein (see below). The sugar cane domes were removed 10 days after transplanting. All plantings were done at day 0. shifting plants to new ozone background for all plants=day 70. […] 60 ppb plants after 8 days (=day 78) in 0 ppb still act as if in 60 ppb. Sugar Cane: plants from 0 ppb, after having their first 70 days of development in 0 ppb, stayed for the nex 33 days (till day 103) in 60 ppb before being placed back in their original 0 ppb. […] Sugarcane plants were grown in the same manner as described above in Example 2. The AOX and total dark respiration were measured for plants exposed to various levels of ozone as described above in Example 2.

[3] = test system: Cotton; experiment: Total dark respiration and SHAM-sensitive AOX by phase shift fluorescence, cotton leaf sections; format: in vivo, Gossypium spp.; conditions: for increase of AOX respiration compared to the initial AOX respiration rate: ontogenic phase in 0 ppbv ozone ambient
Text: All plantings were done at day 0. shifting plants to new ozone background for all plants=day 70. […] 60 ppb plants after 8 days (=day 78) in 0 ppb still act as if in 60 ppb. Sugar Cane: plants from 0 ppb, after having their first 70 days of development in 0 ppb, stayed for the nex 33 days (till day 103) in 60 ppb before being placed back in their original 0 ppb.
Ozone generators (model OP-35-3P, Grupo Interozone, Brazil) were coupled to ozone monitors (model 202, 2B Technologies, Inc. USA; dynamic range of 1.5 ppbv to 100 ppmv of ozone; precision 1.5 ppbv or 2% of the reading) using a ozone monitor—generator interface (Engineering dep. Crops Advance Brazil). […] This was used as the upper limit for phytotron number one. Phytotron number two was set at 30 ppbv average ozone. Phytotron number three was set at 60 ppbv average ozone. Ozone levels of phytotron number two and three were permanently measured at 10 second intervals and averaged per minute. Each ozone monitor fed averaged values over an analog output to an ozone monitor—ozone generator interface. Hysteresis was set at +/−5 ppbv. Ozone levels were monitored close to the inlet of the two internal circulation ventilators. The ozone generators were adapted to accept an external digital signal from the interface.
Respiration of plant material was tested as follows: Partial oxygen pressure drops due to oxygen consumption as result of dark respiration were measured using phase shift fluorescence measurement. For this, a NeoFox™ Phase Measurement System was used (Fluorometer Bench version using a QBIF600-VIS-NIR laboratory-grade bifurcated optical fiber with FOXY-R-8 cm overcoated fluorescence oxygen needle sensor, Ocean Optics Inc. USA).
Fluorescence phase shift was expressed as Tau in microseconds (μs) and has an inverse and linear relation with the partial oxygen pressure.
Salicylhydroxamic acid (SHAM) (99%, Sigma-Aldrich Brasil Ltda. Sao Paulo, Brazil) was used as an AOX inhibitor. The soluble sodium salicylhydroxamate salt was prepared by titrating SHAM with 0.1 M sodium hydroxide until neural pH. A stock solution ([…]) was prepared containing 300 ml/L ethanol from initial dissolving SHAM (same abbreviation is used for the salicylhydroxamate salt). From the stock solution a 20 mmol/L salicylhydroxamate final test solution was prepared by taking 12.3 ml stock solution and completing till 100 ml with a phosphate buffer solution (pH 7). The final SHAM test solution thus contained 3.7% residual ethanol. For proper control, the comparative test solution was also provided with 3.7 ml of ethanol per 100 ml of phosphate buffer solution (pH 7). To both solutions two drops of wetting agent (Silwet L-77 AG, GE Silicones Inc. USA) were added per 25 ml of test solution.
Plant material collected was always the first fully grown leaf counting from the apical point downwards or outwards (e.g. for monocotyls). […] Per test, four leafs from four different plants were sampled. Cotton leafs were cut in half along the mid nerve. Using a clipper, 16 leaf sections of equal surface area of 400.9 mm2 each were cut, one from each base half and one from each top half part giving 4 sections per leaf and 16 sections per test. The leaf sections were distributed equally over two sub samples, one with and one without salicylhydroxamate. Using a chirurgical blade, all sections were given 7 parallel cuts (through and through) at approximately 2.5 mm apart over almost the full length of the section to guarantee lateral infiltration of the test solutions and gas exchange.
Within 10 minutes of plant sampling the sections were cut, initial subsample weight was registered using a high precision laboratory scale and the subsamples were placed in their solutions with and without salicylhydroxamate for 60 minutes in the dark, to guarantee dark adaptation.
Each sample contained 4 leaves, 4 sections per leaf providing 16 sections, 8 per subsample. […]

[4] = test system: Rice; experiment: Full leaf Rice Total Dark Respiration (TDR) measurements; format: in vivo, Oryza sativa L.
Text: as §1

[5] = test system: Cotton; experiment: Full leaf Cotton Total Dark Respiration (TDR) measurements; format: in vivo, Gossypium spp.
Text: as §1

[6] = ozone concentration during growth 30 ppbv
[7] = ozone concentration during growth 60 ppbv
[8] = 0 →30 ppbv ozone: plants grown in 0 ppvb O3 and transferred to 30 ppvb O3
[9] = 0 →60 ppbv ozone: plants grown in 0 ppvb O3 and transferred to 60 ppvb O3 (day 70, 7 days)
[10] = 0 →60 →0 ppbv ozone: grown in 0 ppvb O3, transferred to 60 ppvb O3 and transferred back to 0 ppvb O3
[11] = 60 →0 ppbv ozone: plants grown in 60 ppvb O3 and transferred to 0 ppvb O3 (day 70, 8 days)

O=[O+][O-] [ozone]
Normalized dark respiration activity (dwt) [1, 6]: 14.7 h/Tau/g dry weigth/40 ml | Normalized dark respiration activity (fwt) [1, 6]: 78.3 h/Tau/g fresh weigth/40 ml | Normalized dark respiration activity (dwt) [1, 7]: 14.5 h/Tau/g dry weigth/40 ml | Normalized dark respiration activity (fwt) [1, 7]: 72.1 h/Tau/g fresh weigth/40 ml | relative AOX, integration of the parabolic function yields ([2]; Time of Day 5.3): 0.0% | absolute AOX, integration of the parabolic function yields ([2]; Time of Day 5.6): 0.0 | absolute AOX, integration of the parabolic function yields ([2]; Time of Day 23.0): 51.9 | relative AOX, integration of the parabolic function yields ([2]; Time of Day 24.3): 436% | AOX at 10:00 am (% of TDR) ([2]; 70 days 0 ppbv, 33 days at 60 ppbv, returned to 0 ppbv, after 5 days): approximately 5 % of TDR | AOX at about 10:00 am (% of TDR) ([2]; 70 days 0 ppbv, 33 days at 60 ppbv, then returned to 0 ppbv, first): approximately 35 % of TDR | AOX level after shift to 0 ppbv ([2]; 70 days at 60 ppbv, thereafter 33 days in 0 ppbv): maintained their 60 ppb AOX levels; also recorded: maintain their high AOX; also recorded: consistently high AOX levels | AOX 60 ppbv/AOX 0 ppbv (dTau/dt/dTau/dt) ([2]; absolute AOX): 169% | AOX 60 ppbv/AOX 0 ppbv (%/%) ([2]; relative AOX): 154% | AOX component (arb units) [3, 8]: 3.26 arb units | AOX/TDR [3, 8]: 30.3% | AOX/TDR relative to initial equilibrium [3, 8]: 116.5% | TDR excl AOX dTau/t (μs/s) without SHAM [3, 8]: 7.51E−06 μs/s | TDR incl AOX dTau/t (μs/s) with SHAM [3, 8]: 1.08E−05 μs/s | AOX component (arb units) [3, 9]: 3.77 arb units | AOX/TDR [3, 9]: 39.6% | AOX/TDR relative to initial equilibrium [3, 9]: 152.5% | TDR excl AOX dTau/t (μs/s) without SHAM [3, 9]: 5.75E−06 μs/s | TDR incl AOX dTau/t (μs/s) with SHAM [3, 9]: 9.52E−06 μs/s | AOX component (arb units) [3, 10]: 2.95 arb units | AOX/TDR [3, 10]: 25.0% | AOX/TDR relative to initial equilibrium [3, 10]: 96.2% | TDR excl AOX dTau/t (μs/s) without SHAM [3, 10]: 8.87E−06 μs/s | TDR incl AOX dTau/t (μs/s) with SHAM [3, 10]: 1.18E−05 μs/s | AOX component (arb units) [3, 11]: 3.97 arb units | AOX/TDR [3, 11]: 35.8% | AOX/TDR relative to initial equilibrium [3, 11]: 100.5% | TDR excl AOX dTau/t (μs/s) without SHAM [3, 11]: 7.13E−06 μs/s | TDR incl AOX dTau/t (μs/s) with SHAM [3, 11]: 1.11E−05 μs/s | increase of AOX respiration compared to the initial AOX respiration rate ([3]; placed in the 30 ppbv ozone ambient): 16.5% | increase of AOX respiration compared to the initial AOX respiration rate ([3]; placed in the 60 ppbv ozone ambient): 52.5% | AOX respiration after return to the 0 ppbv ozone ambient ([3]; ontogenic phase in 0 ppbv, passed time in the 60 ppbv ozone ambient): returned fully to its initial level | AOX component (arb units) ([3]; plants grown in 30 ppvb O3): 2.97 arb units | AOX/TDR ([3]; plants grown in 30 ppvb O3): 29.9% | TDR excl AOX dTau/t (μs/s) without SHAM ([3]; plants grown in 30 ppvb O3): 6.96E−06 μs/s | TDR incl AOX dTau/t (μs/s) with SHAM ([3]; plants grown in 30 ppvb O3): 9.93E−06 μs/s | AOX component (arb units) ([3]; plants grown in 60 ppvb O3): 3.33 arb units | AOX/TDR ([3]; plants grown in 60 ppvb O3): 35.6% | AOX/TDR relative to initial equilibrium ([3]; plants grown in 60 ppvb O3): 100.0% | TDR excl AOX dTau/t (μs/s) without SHAM ([3]; plants grown in 60 ppvb O3): 6.03E−06 μs/s | TDR incl AOX dTau/t (μs/s) with SHAM ([3]; plants grown in 60 ppvb O3): 9.36E−06 μs/s | AOX respiration during stay in the zero ozone level ambient ([3]; plants grown up in the 60 ppbv ozone level ambient): did not lower their AOX respiration | Normalized dark respiration activity (dwt) [4, 6]: 8.2 h/Tau/g dry weigth/40 ml | Normalized dark respiration activity (fwt) [4, 6]: 29.2 h/Tau/g fresh weigth/40 ml | Normalized dark respiration activity (dwt) [4, 7]: 7.6 h/Tau/g dry weigth/40 ml | Normalized dark respiration activity (fwt) [4, 7]: 29.4 h/Tau/g fresh weigth/40 ml | Normalized dark respiration activity (dwt) [5, 6]: 13.4 h/Tau/g dry weigth/40 ml | Normalized dark respiration activity (fwt) [5, 6]: 72.6 h/Tau/g fresh weigth/40 ml | Normalized dark respiration activity (dwt) [5, 7]: 12.7 h/Tau/g dry weigth/40 ml | Normalized dark respiration activity (fwt) [5, 7]: 67.9 h/Tau/g fresh weigth/40 ml
